One data set addresses T1, CYP1A2 (Homo sapiens, UniProt P05177).
T1 construct: Mixed human liver microsomes from 150 donors; tissue Corning 452117; host or cells: pooled human liver microsomes (150 donors)
T1 sequence (P05177 1-516): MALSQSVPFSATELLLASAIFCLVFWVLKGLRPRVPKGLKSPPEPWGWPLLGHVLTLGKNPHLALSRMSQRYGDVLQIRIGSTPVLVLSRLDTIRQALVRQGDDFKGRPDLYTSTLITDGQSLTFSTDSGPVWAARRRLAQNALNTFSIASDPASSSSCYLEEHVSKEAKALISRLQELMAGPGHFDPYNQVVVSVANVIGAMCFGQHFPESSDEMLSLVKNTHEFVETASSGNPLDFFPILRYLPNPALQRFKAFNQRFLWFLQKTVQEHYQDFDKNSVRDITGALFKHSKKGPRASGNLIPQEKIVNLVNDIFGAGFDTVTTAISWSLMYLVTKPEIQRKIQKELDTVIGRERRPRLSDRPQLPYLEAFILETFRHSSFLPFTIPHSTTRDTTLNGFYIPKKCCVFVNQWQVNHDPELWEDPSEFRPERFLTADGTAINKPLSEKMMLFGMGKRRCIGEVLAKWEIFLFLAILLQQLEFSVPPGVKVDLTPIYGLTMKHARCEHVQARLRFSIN
The experiment in a line: CYP inhibition in mixed human liver microsomes, CYP1A2 (phenacetin). Type of data set: in vitro ADME. As to conditions: mixed human liver microsomes 0.2 mg/mL, phenacetin; read-out: Median inhibitory concentration (IC50) CYP 1A2. The procedure: (§1) Mixed human liver microsomes from 150 donors (purchased from Corning, catalog number 452117) were used to evaluate the representative substrate metabolic responses of the five main human CYP subtypes (CYP1A2, CYP2C9, CYP2C19, CYP2D6 and CYP3A4/5). The influence of different concentrations of test compounds on the metabolic responses of phenacetin (CYP1A2), diclofenac sodium (CYP2C9), S-mephenytoin (CYP2C19), bufurolol hydrochloride (2D6) and midazolam (CYP3A4/5) was determined by liquid chromatography tandem mass spectrometry (LC/MS/MS).
(§2) 200 μL of the reaction system (100 mmol/L phosphate buffer, pH 7.4, containing 0.3% DMSO, 0.6% acetonitrile and 0.1% methanol by volume respectively) with 30 µM phenacetin, 10 μM diclofenac sodium, 35 μM S-mephenytoin, 5 μM bufurolol hydrochloride, 3 μM midazolam, 1 mM NADPH, test compound (at a concentration of 0.1, 0.3, 1, 3, 10 and 30 μmol/L respectively) or positive compound or blank control and mixed human liver microsomes (0.2 mg/mL) was incubated at 37° C. for 5 minutes. […]
(§3) The peak area was calculated based on the chromatograms. The residual activity ratio (%) was calculated using the following equation: […]
(§4) The CYP median inhibitory concentration (IC50) was calculated by Excel XLfit 5.3.1.3.
(In general: Liver microsomes are vesicles of endoplasmic reticulum, rich in cytochrome P450 enzymes.)

The target of a further data set is T2, CYP2D6 (Homo sapiens, UniProt P10635).
T2 construct: Mixed human liver microsomes from 150 donors; tissue Corning 452117; host or cells: pooled human liver microsomes (150 donors)
T2 sequence (P10635 whole entry): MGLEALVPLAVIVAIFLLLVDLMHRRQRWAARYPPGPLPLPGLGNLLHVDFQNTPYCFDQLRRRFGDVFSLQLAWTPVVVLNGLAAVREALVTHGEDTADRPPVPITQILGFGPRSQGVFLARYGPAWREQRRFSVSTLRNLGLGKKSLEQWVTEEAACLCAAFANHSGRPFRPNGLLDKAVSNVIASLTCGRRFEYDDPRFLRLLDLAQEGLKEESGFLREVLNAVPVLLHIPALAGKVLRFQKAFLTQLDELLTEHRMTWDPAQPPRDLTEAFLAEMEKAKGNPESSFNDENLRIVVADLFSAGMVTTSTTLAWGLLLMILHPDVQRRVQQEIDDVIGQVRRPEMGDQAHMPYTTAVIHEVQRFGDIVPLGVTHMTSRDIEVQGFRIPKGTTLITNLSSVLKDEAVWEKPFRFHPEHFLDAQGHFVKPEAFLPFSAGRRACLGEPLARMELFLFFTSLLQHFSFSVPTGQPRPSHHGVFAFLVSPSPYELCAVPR
The experiment in a line: CYP inhibition in mixed human liver microsomes, CYP2D6 (bufurolol hydrochloride). Type of data set: in vitro ADME. As to conditions: mixed human liver microsomes 0.2 mg/mL, bufurolol hydrochloride; read-out: Median inhibitory concentration (IC50) CYP 2D6. The procedure:
as §1, §2, §3, §4

The next data set has as its target T3, CYP2C19 (Homo sapiens, UniProt P33261).
T3 construct: Mixed human liver microsomes from 150 donors; tissue Corning 452117; host or cells: pooled human liver microsomes (150 donors)
The data set is described as follows: CYP inhibition in mixed human liver microsomes, CYP2C19 (S-mephenytoin). Type of data set: in vitro ADME. The note with it: mixed human liver microsomes 0.2 mg/mL, S-mephenytoin; read-out: Median inhibitory concentration (IC50) CYP 2C19. The procedure: as §1, §2, §3, §4

A further data set addresses T4, CYP2C9 (Homo sapiens, UniProt P11712).
T4 construct: Mixed human liver microsomes from 150 donors; tissue Corning 452117; host or cells: pooled human liver microsomes (150 donors)
The experiment in a line: CYP inhibition in mixed human liver microsomes, CYP2C9 (diclofenac sodium). The format is in vitro ADME. As to conditions: mixed human liver microsomes 0.2 mg/mL, diclofenac sodium; read-out: Median inhibitory concentration (IC50) CYP 2C9. The procedure: as §1, §2, §3, §4

The subject of another data set is CYP3A4/5. The experiment in a line: CYP inhibition in mixed human liver microsomes, CYP3A4/5 (midazolam). The format is in vitro ADME. The note with it: mixed human liver microsomes (150 donors), pH 7.4, probe midazolam (3 μM), mixed human liver microsomes 0.2 mg/mL, read-out: Median inhibitory concentration (IC50) CYP 3A4/5. The procedure: as §1, §2, §3, §4
Data set [1] is described as follows: In vivo pharmacokinetics in cynomolgus monkeys (gavage). The note with it: male, plasma, po, 5 mg/kg, original drug, cynomolgus monkey, 5 mpk. The procedure:
Cynomolgus monkeys were used as the test animals. The plasma drug concentration at different times after the cynomolgus monkeys were given the compounds of the invention by gavage was determined by using the LC/MS/MS method. The in vivo pharmacokinetic behavior of the compounds of the present invention in cynomolgus monkeys was studied, and pharmacokinetic characteristics thereof were evaluated.
Test animals: 3 healthy, 2-5 years old male cynomolgus monkeys in each group;
Administration by gavage: a certain amount of drug was weighed, and 0.5% by mass of hypromellose, 0.1% by volume of Tween 80 and 99.4% by volume of water were added thereto to formulate a white suspension at 1 mg/mL.
The cynomolgus monkeys were fasted overnight, and then the drug was administered by gavage at a dose of 5 mg/kg.
Cynomolgus monkeys were administered the compounds of the present invention by gavage. At 0.25, 0.5, 1, 2, 4, 8 and 24 hours after administration, 0.2 mL of blood was collected from the peripheral vein and placed in a test tube containing EDTA-K2. The tube was centrifuged at 2 to 8° C., 2000 rpm for 10 minutes to separate the plasma, which was stored at −75° C.
Determination of the content of the test compounds in cynomolgus monkey plasma after administration of different concentrations of drugs by gavage: 55 μL of cynomolgus monkey plasma at each time after administration was taken, and 200 μL of a solution of the internal standard verapamil or dexamethasone in acetonitrile. The mixture was mixed by vortexing for 30 seconds, centrifuged at 4° C., 3900 rpm for 15 minutes. The supernatant of the plasma samples were collected and diluted three times with water, and 15 μL was taken for LC/MS/MS analysis.

A short description of data set [2]: In vitro metabolic stability in rat liver microsomes. Type of data set: in vitro ADME. As to conditions: rat liver microsomes (male Wistar Han), NADPH, 37° C.; read-out: Intrinsic clearance rate. On the procedure:
The concentration of the compound in the reaction system was determined by LC/MS/MS, so as to calculate the intrinsic clearance rate of the test compound and to evaluate the in vitro metabolic stability in rat liver microsomes.
222.5 μL, 1.1236 mg/mL of a mixed solution of rat liver microsomes (male Wistar Han strain, purchased from Corning, catalog number 452511) and 25 μL, 10 mM of NADPH were added into the incubation plate. The mixture was mixed by vortexing for 10 seconds. The plate was incubated in a water bath at 37° C. for 8 minutes. 2.5 μL, 100 μM of the test compound or positive control was added to the incubation plate to start the reaction. The mixture was mixed by vortexing for 12 seconds, and incubated in a water bath at 37° C. The reaction was stopped by transferring 20 μL of the incubation system to a stop plate containing 100 μL of cold stop solution at 0.5, 5, 10, 15, 20 and 30 minutes. The mixture was mixed by vortexing for 2 minutes. The stop plate was centrifuged at 4000 rpm for 20 minutes, then left to stand at 4° C. for 30 minutes, and then centrifuged at 4000 rpm for 20 minutes. 40 μL of the supernatant of each compound was transferred to a 96-well injection plate, and 160 μL of pure water was added to dilute the samples.
The obtained samples were quantified by ion chromatogram, and the residual rate was calculated according to the peak area of the test compounds or positive control. The slope k was determined by linear regression of the natural logarithm of the residual rate to the incubation time by using Microsoft Excel.
The in vitro half-life (in vitro t1/2) was calculated from the slope: in vitro t1/2=−(0.693/k)
The following equation was used to convert in vitro half-life into intrinsic clearance rate (in vitro CLint, μL/min/mg protein):
in vitro CLint=(0.693/t1/2)×(incubation volume (L)/protein amount (mg))

Data set [3] in a line: In vivo pharmacokinetics in rats (gavage). Also on record: species or system SD rats. As to conditions: original drug, rat, 7.5 mpk. The procedure:
Rats were used as the test animals. The plasma drug concentration at different times after the rats were given the compounds of the invention by gavage was determined by using the LC/MS/MS method. The in vivo pharmacokinetic behavior of the compounds of the present invention in rats was studied, and pharmacokinetic characteristics thereof were evaluated.
Test animals: 3 healthy, 6-8 weeks old male SD rats in each group
A certain amount of drug was weighed, and 0.5% by mass of hypromellose, 0.1% by volume of Tween 80 and 99.4% by volume of water were added thereto to formulate a white suspension at 1 mg/mL.
SD rats were fasted overnight, then the drug was administered by gavage. The dosage of reference 1 was 7.5 mg/kg, and the dosage of Example 1 was 5 mg/kg.
Rats were administered the compounds of the present invention by gavage. At 0.25, 0.5, 1, 2, 4, 8 and 24 hours after administration, 0.2 mL of blood was collected from the jugular vein and placed in a test tube containing EDTA-K2. The tube was centrifuged at 4° C., 4000 rpm for 5 minutes to separate the plasma, which was stored at −75° C.
Determination of the content of the test compounds in rat plasma after administration of different concentrations of drugs by gavage: 50 μL of rat plasma at each time after administration was taken, and 200 μL of a solution of the internal standard dexamethasone in acetonitrile (50 ng/mL). The mixture was mixed by vortexing for 30 seconds, centrifuged at 4° C., 4700 rpm for 15 minutes. The supernatant of the plasma samples were collected and diluted three times with water, and 2.0 μL was taken for the LC/MS/MS analysis.

Data set [4] addresses T5, full-length SHP2 (aa 1-593) (Homo sapiens, UniProt Q06124).
T5 sequence (Q06124 1-593): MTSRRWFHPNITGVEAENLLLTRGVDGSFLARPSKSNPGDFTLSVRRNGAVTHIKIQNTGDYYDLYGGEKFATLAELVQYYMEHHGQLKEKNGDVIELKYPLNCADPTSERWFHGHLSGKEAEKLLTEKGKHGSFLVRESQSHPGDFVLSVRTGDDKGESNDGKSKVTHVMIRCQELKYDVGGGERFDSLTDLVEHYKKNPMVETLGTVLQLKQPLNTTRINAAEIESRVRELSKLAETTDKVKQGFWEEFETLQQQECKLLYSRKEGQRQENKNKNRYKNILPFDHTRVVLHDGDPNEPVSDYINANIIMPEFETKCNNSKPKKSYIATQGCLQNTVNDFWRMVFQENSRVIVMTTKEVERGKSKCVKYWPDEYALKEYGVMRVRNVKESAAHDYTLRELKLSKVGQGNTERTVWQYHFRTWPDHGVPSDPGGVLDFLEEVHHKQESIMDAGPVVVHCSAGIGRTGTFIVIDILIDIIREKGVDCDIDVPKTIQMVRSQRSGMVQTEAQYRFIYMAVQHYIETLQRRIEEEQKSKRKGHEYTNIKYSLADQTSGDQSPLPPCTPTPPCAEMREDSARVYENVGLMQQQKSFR
The data set is described as follows: Activity on SHP2 phosphatase (DiFMUP fluorescence).
Protocol: 0.2 nM recombinantly expressed full-length SHP2 (aa 1-593), 0.5 nM activated polypeptide IRS1 with dual phosphorylation sites (sequence: H2N-LN(pY)IDLDLY(dPEG8)LST(pY)ASINFQK-amide), and a series of concentrations of the test compound (final concentrations of 1 μM, 0.3 μM, 0.1 μM, 0.03 μM, 0.01 μM, 0.003 μM, 0.001 M, 0.0003 μM, 0.0001 μM and 0.00003 μM) were added into the phosphatase reaction solution (60 mM HEPES, PH 7.5 0.005% Brij-35, 75 mM NaCl, 75 mM KCl, 1 mM EDTA, 5 mM DTT), followed by shaking (350 rpm) at room temperature for 30 minutes. Then the reaction substrate DiFMUP was added at a final concentration of 30 μM, and the reaction solution was reacted at room temperature for 30 minutes. Then the phosphatase reaction was stopped by adding 5 μL of the reaction stop solution (60 mM HEPES, pH 7.5, 0.2% SDS). Ex358 nm/Em455 fluorescence value was read on the fluorescence plate reader MD SpectraMax.
The IC50 value of compounds was calculated by using the four-parameter logit method. […] Different concentrations correspond to different inhibition rates of phosphatase activity. A reverse curve was plotted and the IC50 of the inhibitors was calculated from the curve. The IC50 of compounds was calculated by using Primer premier 6.0.

One may read the AUC as the area under the concentration-time curve, a measure of exposure. A word on the Cmax: it is the maximum level reached in the sampled fluid or tissue.

pIC50: −log10 of the molar value.

T4 sequence (P11712 whole entry): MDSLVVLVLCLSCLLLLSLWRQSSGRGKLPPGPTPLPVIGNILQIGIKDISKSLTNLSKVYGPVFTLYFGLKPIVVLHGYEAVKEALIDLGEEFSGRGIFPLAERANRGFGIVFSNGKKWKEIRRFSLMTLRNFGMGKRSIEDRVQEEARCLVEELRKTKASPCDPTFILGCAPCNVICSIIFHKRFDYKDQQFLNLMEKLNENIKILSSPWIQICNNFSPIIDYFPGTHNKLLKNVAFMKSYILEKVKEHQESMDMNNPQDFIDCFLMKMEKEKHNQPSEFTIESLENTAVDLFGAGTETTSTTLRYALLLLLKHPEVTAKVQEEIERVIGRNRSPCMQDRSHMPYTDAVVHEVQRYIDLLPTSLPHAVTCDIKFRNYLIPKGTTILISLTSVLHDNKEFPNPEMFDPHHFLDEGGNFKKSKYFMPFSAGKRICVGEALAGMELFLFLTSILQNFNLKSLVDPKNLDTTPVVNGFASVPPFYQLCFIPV
T3 sequence (P33261 whole entry): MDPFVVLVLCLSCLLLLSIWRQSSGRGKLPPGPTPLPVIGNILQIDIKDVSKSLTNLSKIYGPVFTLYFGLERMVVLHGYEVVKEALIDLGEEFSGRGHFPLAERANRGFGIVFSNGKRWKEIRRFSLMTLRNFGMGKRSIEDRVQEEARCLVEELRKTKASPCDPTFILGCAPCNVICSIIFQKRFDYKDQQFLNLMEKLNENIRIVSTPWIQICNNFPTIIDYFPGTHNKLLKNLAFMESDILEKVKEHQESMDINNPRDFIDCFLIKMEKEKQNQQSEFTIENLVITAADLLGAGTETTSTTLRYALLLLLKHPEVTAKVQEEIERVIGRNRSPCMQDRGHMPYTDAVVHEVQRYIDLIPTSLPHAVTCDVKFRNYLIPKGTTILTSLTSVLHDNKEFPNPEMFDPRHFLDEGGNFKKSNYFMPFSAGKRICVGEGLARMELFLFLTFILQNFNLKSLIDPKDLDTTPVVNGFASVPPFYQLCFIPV

With `Nc1nccc(Sc2cnc(N3CCC4(CC3)Cc3ncccc3[C@H]4N)n3ccnc23)c1Cl` [Example 1, (S)-1′-(8-((2-Amino-3-chloropyridin-4-yl)thio)imidazo[1,2-c]pyrimidin-5-yl)-5,7-dihydrospiro[cyclopenta[b]pyridine-6,4′-piperidin]-5-amine], the pIC50 at CYP1A2 was 5.04; at CYP2D6, less than 4.70; on CYP2C19 it was less than 4.70; on CYP2C9 it was less than 4.70. For the same compound, in the data set with CYP3A4/5, the IC50 at 5 min was more than 20 µM.

Regarding `CNc1nccc(Sc2c(C)nc(N3CCC4(CC3)Cc3ncccc3[C@H]4N)n3ccnc23)c1Cl` [Example 2, (S)-1′-(8-((3-Chloro-2-(methylamino)pyridin-4-yl)thio)-7-methylimidazo[1,2-c]pyrimidin-5-yl)-5,7-dihydrospiro[cyclopenta[b]pyridine-6,4′-piperidin]-5-amine], the area under the curve (AUC) in data set [1] (read-out: Area under curve AUC) is 71000 ng·h/mL; in data set [3] (male, SD, plasma, po, 7.5 mg/kg, read-out: Area under curve AUC), 4250 ng·h/mL. Besides, the Cmax in [1] (read-out: Maximum blood conc. Cmax) worked out at 12700 ng/mL; in [3] (male, SD, plasma, po, 7.5 mg/kg, read-out: Maximum blood conc. Cmax), 500 ng/mL. In addition, the microsomal CLint at 1 µM in data set [2] stood at 19.2 µL/min/mg. In addition, the “Area under curve of unit dose AUC/D” value in [3] is listed as 567 ng*h/mL per mg/kg.

On to `[2H]C([2H])Nc1nccc(Sc2c(C)nc(N3CCC4(CC3)Cc3ncccc3[C@H]4N)n3ccnc23)c1Cl` [Example 5, (S)-1′-(8-((3-Chloro-2-((methyl-d2)amino)pyridin-4-yl)thio)-7-methylimidazo[1,2-c]pyrimidin-5-yl)-5,7-dihydrospiro[cyclopenta[b]pyridine-6,4′-piperidin]-5-amine], for which the pIC50 in data set [4] is 8.32. The microsomal CLint at 1 µM in data set [2] was determined as 26.6 µL/min/mg.

In data set [4], `[2H]CNc1nccc(Sc2c(C)nc(N3CCC4(CC3)Cc3ncccc3[C@H]4N)n3ccnc23)c1Cl` [Example 6, (S)-1′-(8-((3-Chloro-2-((methyl-d)amino)pyridin-4-yl)thio)-7-methylimidazo[1,2-c]pyrimidin-5-yl)-5,7-dihydrospiro[cyclopenta[b]pyridine-6,4′-piperidin]-5-amine] gave a pIC50 of 8.33. Besides, the microsomal CLint at 1 µM in data set [2] is 34.7 µL/min/mg.

For the origin of these results see patent US20220380385A1, “PYRIMIDINE FIVE-MEMBERED NITROGEN HETEROCYCLIC DERIVATIVE, PREPARATION METHOD THEREOF AND PHARMACEUTICAL USE THEREOF” (TUOJIE BIOTECH(SHANGHAI) CO., LTD., priority 2019, published 2022).
